Laboratory results from US20230295293A1, “BINDING MOLECULES AGAINST FRa” (AstraZeneca AB, priority 2022, published 2023).

Assays:
Type in all cases: in vivo, mouse
[1] = test system: OVO857_CIS ("OVO0875") ovarian PDX; assay: OVO857_CIS ovarian PDX model; conditions: for Tumor growth inhibition (TGI %): OVO857 PDX; for Mean Tumor volume (mm^3) ± SEM / TGI (%): OVO875 ovarian cancer PDX
Description: (§1) In-house in vivo patient derived xenograft (PDX) efficacy studies were conducted using 2 different ovarian PDX models, OVO857_CIS (“OVO0875”) and CTG3226. 6-8-week-old female NSG (NOD-SCID IL2Rgamma^null) as seed mice were implanted subcutaneously with tumor tissue fragments. When sufficient seed animals reached 1000-1500 mm^3, tumors were harvested, and fragments were implanted into study animals. When tumor volume reached approximately 150-250 mm^3, mice were randomly assigned into different groups (n=3 mice per group). One group received no treatment. Four groups were administered intravenously 10, 5, 2.5 and 1.25 mg/kg AB1370049-SG3932 DAR8 respectively. Two groups were administered intravenously 5 and 2.5 mg/kg FRα-DM4 ADC (“biosimilar to mirvetuximab soravtansine”, with a DAR of about 3) respectively. All dosed animals received drug intravenously as a single dose at 10 ml/kg, on day 39 for OVO857_CIS and day 46 for CTG3226 PDX models.
(§2) Tumor volumes were measured by digital caliper and the volumes of tumors were calculated using the following formula: tumor volume=[length (mm)×width (mm)^2×0.52, where the length and width are the longest and shortest diameters of the tumor, respectively. Body weights were measured twice weekly to assess tolerability of the treatments.
(§3) The growth of tumors in each experimental group was expressed as the mean tumor volume (mm^3)±SEM of the number of animals used.
(§4) Tumor growth inhibition (TGI) was calculated by comparing each treatment group to the untreated control group. Percentage inhibition was calculated from the group means using the following formula: […]
(§5) Where C is mean tumor volume of untreated control group and T is mean tumor volume of treated groups.

CTG3226 ovarian PDX = CTG3226 ovarian PDX model; conditions: for Tumor growth inhibition (TGI %): CTG3226 PDX; for Mean Tumor volume (mm^3) ± SEM / TGI (%): CTG3226 ovarian cancer PDX
Description: as §1, §2, §3, §4, §5

[2] = test system: FRα-DM4-resistant OVCAR-3 tumors; assay: FRα-DM4-resistant OVCAR3 xenograft model; conditions: FRα-DM4 resistant OVCAR3 tumors re-implanted in new host mice; two doses (Q2W) of 5 mg/kg
Description: To develop the OVCAR3 xenograft model, 10×10^6 cells/mouse in 50% Matrigel were inoculated subcutaneously into female 6-8-week-old female NSG (NOD-SCID IL2Rgamma^null). When tumour volume reached within the range of 200-600 mm^3, mice were dosed intravenously with FRα-DM4 ADC (“biosimilar to mirvetuximab soravtansine”, with a DAR of about 3) at 5 mg/kg, once every 2 weeks (Q2W) continuously until tumours relapsed and began to grow in size again. Among mice relapsed after 8 rounds of Q2W dosing, 4 mice were selected and re-challenged with AB1370049-SG3932 DAR8 intravenously at 5 mg/kg Q2W, receiving 2 rounds of AB1370049-SG3932 DAR8 treatment.
Separately, relapsed tumor from an additional mouse was excised and re-implanted subcutaneously into female 6-8-week-old female NSG (NOD-SCID IL2Rgamma^null) mice. […]
as §2, with “(mm)× width” for “(mm)×width”
as §3

FRα-DM4 ADC: "biosimilar to mirvetuximab soravtansine", with a DAR of about 3
Tumor growth inhibition (TGI %) ([1]; single iv dose 2.5 mg/kg): 2%
Tumor growth inhibition (TGI %) ([1]; single iv dose 5 mg/kg): 24%
Mean Tumor volume (mm^3) ± SEM ([1]; single iv dose 2.5 mg/kg): 1882.00 ± 199.43 mm^3
TGI (%) ([1]; single iv dose 2.5 mg/kg): 2.40%
Mean Tumor volume (mm^3) ± SEM ([1]; single iv dose 5 mg/kg): 1457.15 ± 250.01 mm^3
TGI (%) ([1]; single iv dose 5 mg/kg): 24.43%
Tumor growth inhibition (TGI %) (CTG3226 ovarian PDX; single iv dose 2.5 mg/kg): no activity
Tumor growth inhibition (TGI %) (CTG3226 ovarian PDX; single iv dose 5 mg/kg): 76.5%
Mean Tumor volume (mm^3) ± SEM (CTG3226 ovarian PDX; single iv dose 2.5 mg/kg): 1127.58 ± 481.10 mm^3
TGI (%) (CTG3226 ovarian PDX; single iv dose 2.5 mg/kg): −16.66%
Mean Tumor volume (mm^3) ± SEM (CTG3226 ovarian PDX; single iv dose 5 mg/kg): 226.86 ± 46.03 mm^3
TGI (%) (CTG3226 ovarian PDX; single iv dose 5 mg/kg): 76.53%
TGI (%) [2]: still resistant to the treatment
